In patent US11530388B2, “Methods of engineering human induced pluripotent stem cells to produce liver tissue” (University of Pittsburgh—Of the Commonwealth System of …, priority 2017, dated 2022):

Key:
[1] = tested on: pMSCV-F-del Casp9-IRES-GFP transfected HEK293 cells (iCasp9); experiment: Caspase 3/7 Assay after AP1903 stimulation of iCasp9-transfected cells; format: cell-based, human; settings: compared to ethanol stimulated cells, 0, 0.1, 1, 10 nmol/l tested, 24 h end point
Text: Because repopulated rat livers with human iPS-Heps can be reconstituted with both rodent cells and human cells, systems to maximize the human component to 100% of the livers and to purify human cells after perfusion/isolation of livers are beneficial. Suicide systems can be designed to potentiate these processes by efficiently inducing apoptosis in transduce cells. An inducible caspase-9 (iCasp9), encoded by a suicide gene engineered from human caspase-9, was incorporated. […]
HEK293 cells are transfected with pMSCV-F-del-Casp9_IRES-GFP (Addgene). • To assess transfection efficiency, cells are co-transfected with a TagRFP control plasmid ( 1/10 of total amount of DNA). • On day 3 transfected cells and negative control are monitored, counted and seeded (1E04 cells/96-well) for Caspase 3/7 Assay (Promega; G8091) Per Transfection/Negative Control cells were seeded as follows: • Per concentration small molecule (chemical inducer of dimerization) AP1903 (ApexBio) two wells, the same amount for negative control. […] T=0 h was measured immediately and T=24 h is measured as end point. (FIG. 13) • iCasp9-IRES-GFP construct is cloned with the rat albumin promoter pEAlb123. • iCasp9 expression (mRNA) is quantified in H4-II-E-C3 by qRT-PCR. […]

[2] = tested on: Untransfected HEK293 cells; experiment: Caspase 3/7 Assay after AP1903 stimulation of untransfected control cells; format: cell-based, human; settings: untransfected HEK293 cells treated with AP1903
Procedure: HEK293 cells are transfected with pMSCV-F-del-Casp9_IRES-GFP (Addgene). • To assess transfection efficiency, cells are co-transfected with a TagRFP control plasmid ( 1/10 of total amount of DNA). • On day 3 transfected cells and negative control are monitored, counted and seeded (1E04 cells/96-well) for Caspase 3/7 Assay (Promega; G8091) Per Transfection/Negative Control cells were seeded as follows: • Per concentration small molecule (chemical inducer of dimerization) AP1903 (ApexBio) two wells, the same amount for negative control. For shuttle control, also wells per concentration are seeded. • On day 4, stimulation with AP1903 starts (0; 0,1; 1; 10 nmol/1). Shuttle control includes cells treated with ethanol only. T=0 h was measured immediately and T=24 h is measured as end point. (FIG. 13) • iCasp9-IRES-GFP construct is cloned with the rat albumin promoter pEAlb123. • iCasp9 expression (mRNA) is quantified in H4-II-E-C3 by qRT-PCR. Cells are transfected with plasmids pEAlb123-iCasp9-IRES-GFP and pcDNA3-CMV-eGFP (positive control). • Cells are harvested and RNA is isolated. iCASP9 and eGFP-specific PCR primers are used to measure expression (FIG. 14).

SMILES: CC[C@@H](C(=O)N1CCCC[C@H]1C(=O)O[C@@H](CCc1ccc(OC)c(OC)c1)c1cccc(OCC(=O)NCCNC(=O)COc2cccc([C@@H](CCc3ccc(OC)c(OC)c3)OC(=O)[C@@H]3CCCCN3C(=O)[C@H](CC)c3cc(OC)c(OC)c(OC)c3)c2)c1)c1cc(OC)c(OC)c(OC)c1 [AP1903]
- AP1903 concentration giving maximum effect in Caspase 3/7 Assay [1]: 1 nmol/L
- effect of AP1903 in Caspase 3/7 Assay [2]: did not show any effect
